The values that follow come from US12473305B2, “Pyrazole boronic acid compound, pharmaceutical composition containing same, and uses thereof” (BEIJING SONGRUN PHARMACEUTICAL TECHNOLOGY CO., LTD., priority 2020, dated 2025).

The test system of series [1] is liver cancer cell line HepG2. As to the kind of experiment: CellTiter-Glo tumor cell proliferation, HepG2. Type of series: cell-based, human. Here is the method:
(§1) The effect of compounds on tumor cell proliferation was detected by CellTiter-Glo method. Human melanoma cell line A375, non-small cell lung cancer cell line A549, human lung adenocarcinoma cell line H1299, colorectal cancer cell line HCT116, liver cancer cell line HepG2 and gastric cancer cell line MGC80-3 were cultured in vitro. The cells were collected after growing to the logarithmic growth phase, centrifuged at 1000 rpm for 5 min, and suspended in an appropriate amount of medium after discarding the supernatant, and the cell concentration was adjusted to 2×10^4/mL. The cell suspension was inoculated onto the 384-well cell culture plate, with 50 μL per well. After being cultured in a cell incubator (37° C., 5% CO2) for 24 h, 5 μL of drug diluted by the cell culture medium was added into each well for the treatment group. Each drug was provided in triplicate. After 72 h incubation in the incubator, 20 μL of CellTiter-Glo was added into each well, and the relative luminescence unit (RLU) was measured with Multimode Microplate Reader Varioskan Flash (Thermo Scientific, USA) after placed at 37° C. for 20 min, and compared with the RLU of the control group. SigmaPlot 10.0 software was used to calculate the inhibition rate and IC50 value.
A general note: Cellular ATP, detected with luciferase, serves as a proxy for viable cell number.

Series [2] deals with human liver cancer Bel7404. As to the kind of experiment: Antitumor activity in vivo, Bel7404 transplanted in nude mice. The arrangement: species or system male BALB/c athymic nude mice. The note with it: 15 mg/kg. The protocol: In the test, the Bel7404 models of human liver cancer transplanted into 6-week-old male BALB/c athymic nude mice (purchased from Shanghai Slac Laboratory Animal Co., Ltd.) with body weight of 18-20 g were used to study the anti-tumor effect of compound 30. The dose of compound 30 was 50 mg/kg (30H group), 25 mg/kg (30 M group) and 12.5 mg/kg (30 L group), respectively, and was injected intravenously twice a week for 5 times in total; at the same time, 5-FU was used as the control drug, which was injected intraperitoneally twice a week for 7 times in total (5 mice/group for the compound 30 administration group, 5 mice in 5 FU administration group; 8 mice were used as the mock group). The long diameter a (mm) and the vertical short diameter b (mm) of the tumor were measured twice a week with a digital electronic caliper. The tumor volume calculation formula was TV=ab^2/2; and the relative tumor volume calculation formula was RTV=Vt/Vo, wherein Vo was the tumor volume measured on the first day of administration (d1), and Vt was the tumor volume at each measurement. On the 22nd day of administration (d22), the animals were sacrificed and weighed. The tumor mass was dissected and weighed. The tumor inhibition rate (tumor inhibitory rate, %) was calculated according to the following formula: […]

In series [3] the test system is human lung adenocarcinoma cell line H1299. As to the kind of experiment: CellTiter-Glo tumor cell proliferation, H1299. Type of series: cell-based. The note with it: NCI-H1299, 72 h. The protocol: as §1
In series [4] the test system is Human melanoma cell line A375. As to the kind of experiment: CellTiter-Glo tumor cell proliferation, A375. Type of series: cell-based. The note with it: Homo sapiens, A-375, 72 h; for inhibition at 1 µM / inhibition at 10 µM: read-out: Inhibition rate A375 (%); for IC50: CellTiter-Glo. The protocol: as §1
The subject of series [5] is non-small cell lung cancer cell line A549. As to the kind of experiment: CellTiter-Glo tumor cell proliferation, A549. Type of series: cell-based, human. The note with it: Homo sapiens, A549, 72 h; for inhibition at 1 µM / inhibition at 10 µM: read-out: Inhibition rate A549 (%); for IC50: CellTiter-Glo. Here is the method:
as §1

The test system of series [6] is colorectal cancer cell line HCT116. As to the kind of experiment: CellTiter-Glo tumor cell proliferation, HCT116. The note with it: Homo sapiens, HCT-116, 72 h; for inhibition at 1 µM / inhibition at 10 µM: read-out: Inhibition rate HCT116 (%); for IC50: CellTiter-Glo. Type of series: cell-based, human. Here is the method: as §1
Series [7] concerns human multiple myeloma RPMI 8226. As to the kind of experiment: Pharmacodynamic study, RPMI 8226 subcutaneous xenograft. Type of series: in vivo, female NOD/SCID mice. The note with it: positive control 0.5 mg/kg, twice a week, tail vein, day of the last administration. The protocol:
The anti-tumor effect in vivo was studied by using the tumor animal model obtained by subcutaneous xenotransplantation of cell lines into female NOD/SCID mice (purchased from Sipeifu Biotechnology Co., Ltd.).
RPMI 8226 cells were subcutaneously inoculated into NOD/SCID mice, and human multiple myeloma subcutaneously transplanted tumor model was successfully established 9 days after inoculating the cells. The test was divided into vehicle (0.3 mL DMSO, 0.27 mL Tween-80, 2.43 mL normal saline) control group, compound 30 low-dose group (20 mg/kg), compound 30 medium-dose group (30 mg/kg), compound 30 high-dose group (40 mg/kg), compound 39 low-dose group (5 mg/kg), compound 39 medium-dose group (10 mg/kg), and compound 39 high-dose group (15 mg/kg), and bortezomib (API purchased from Yangtze River Pharmaceutical) was used as the positive control group (0.5 mg/kg); 5 tumor-bearing mice established above in each group were administered by tail vein twice a week for nine times in total. The long diameter a (mm) of the tumor and the short diameter b (mm) of the tumor perpendicular to the long diameter were measured with digital electronic caliper twice a week. The calculation formula of tumor volume was: TV=ab^2/2; and the calculation formula of relative tumor volume was: RTV=Vt/Vo, Vo was the tumor volume measured when the mice in each group were divided into cages and administered for the first time (d1), and Vt was the tumor volume measured at the last administration. The animals were sacrificed 31 days (d22) after inoculation of RPMI 8226 cells, and weighed. The tumor mass was dissected and weighed, and the tumor inhibition rate was calculated according to the following formula: […]

Where a name gives a salt, the structure may show the parent alone.

Take “((1R)-1-(2-(3-(3-(2-(S,S-2,6-dimethylmorpholino)ethoxy)phenyl)-5-phenyl-1H-pyrazol-1-yl)acetamido)-3-methylbutyl)boronic acid hydrochloride [Compound 37]”: in series [1] (72 h), the IC50 (usually the concentration at which inhibition is half-maximal) amounted to 60 nM. That is a double-digit nanomolar value.

On to `CC(C)C[C@H](NC(=O)Cn1nc(-c2cccc(OCCCCN3CCN(c4ccccc4)CC3)c2)cc1-c1ccccc1)B(O)O` [Compound 41, (R)-(3-methyl-1-(2-(5-phenyl-3-(3-(4-(4-phenylpiperazin-1-yl)butoxy)phenyl)-1H-pyrazol-1-yl)acetamido)butyl)boronic acid dihydrochloride], for which inhibition in series [1] (Homo sapiens, HepG2, 72 h) was half-maximal at 123 nM (IC50).

In the case of “(R)-(3-methyl-1-(2-(5-phenyl-3-(3-((5-(4-phenylpiperazin-1-yl)pentyl)oxy)phenyl)-1H-pyrazol-1-acyl)acetamido)butyl)boronic acid dihydrochloride [Compound 42]”, the IC50 in series [1] (72 h) is 121 nM.

For `O=c1[nH]cc(F)c(=O)[nH]1` [Compound 5FU, 5-FU, reference compound], in series [2] (ip × 7), the “RTV (d22)” value was determined as 2.78 ± 0.37. Also, in series [2] (ip × 7, d22), the “Animal weight (g) (After tumor removal)” value came out at 23.14 ± 0.58 g and the Inhibition rate % worked out at 53.77%.

As for `CC(C)C[C@H](NC(=O)Cn1nc(-c2ccccc2OS(=O)(=O)c2cccc(C(F)(F)F)c2)cc1-c1ccccc1)B(O)O` [Compound 1, (R)-(3-methyl-1-(2-(5-phenyl-3-(2-(((3-(trifluoromethyl)phenyl)sulfonyl)oxy)phenyl)-1H-pyrazol-1-yl)acetamido)butyl)boronic acid], the IC50 stood at 7190 nM in series [3], 8910 nM in series [4] and 6530 nM in series [6]. For the same compound, the inhibition (as a rule, the percentage by which the read-out fell short of the control) at 1 µM stood at 5.8% in series [4], 11.9% in series [5] and 13.1% in series [6]. Besides, the inhibition at 10 µM in series [4] turned out to be 98.4%; in series [5] it was 66.4%; in series [6], 98%.

In the case of `CC(C)C[C@H](NC(=O)Cn1nc(-c2cccc(OCCCN3CCN(c4ccccc4)CC3)c2)cc1-c1ccccc1)B(O)O` [Compound 40, (R)-(3-methyl-1-(2-(5-phenyl-3-(3-(3-(4-phenylpiperazin-1-yl)propoxy)phenyl)-1H-pyrazol-1-yl)acetamido)butyl)boronic acid dihydrochloride], 101 nM corresponded to half-maximal inhibition in series [1] (Homo sapiens, HepG2, 72 h) (IC50).

With `CC(C)C[C@H](NC(=O)Cn1nc(-c2ccccc2OS(=O)(=O)c2cccc(C(F)(F)F)c2)cc1-c1ccc(F)cc1)B(O)O` [Compound 16, (R)-(1-(2-(5-(4-fluorophenyl)-3-(2-(((3-(trifluoromethyl)phenyl)sulfonyl)oxy)phenyl)-1H-pyrazol-1-yl)acetamido)-3-methylbutyl)boronic acid], the inhibition at 1 µM in series [4] was 14.2%; in series [5], 1.6%; in series [6], 8.3%. Besides, the inhibition at 10 µM was determined as 91.9% in series [4], 36.9% in series [5] and 93.8% in series [6].

Regarding `CC(C)C[C@H](NC(=O)Cn1nc(-c2ccccc2OS(=O)(=O)c2ccc(C(F)(F)F)cc2)cc1-c1ccccc1)B(O)O` [Compound 2, (R)-(3-methyl-1-(2-(5-phenyl-3-(2-(((4-(trifluoromethyl)phenyl)sulfonyl)oxy)phenyl)-1H-pyrazol-1-yl)acetamido)butyl)boronic acid], the results for the inhibition at 1 µM in series [4], in series [5] and in series [6] were 8.6%, 15.1% and 1.4%, respectively. In addition, the inhibition at 10 µM stood at 97.8% in series [4], 61.7% in series [5] and 97.9% in series [6].

As to `CC(C)C[C@H](NC(=O)Cn1nc(-c2cccc(OCCN(C)C)c2)cc1-c1ccccc1)B(O)O` [Compound 29, (R)-(1-(2-(3-(3-(2-(dimethylamino)ethoxy)phenyl)-5-phenyl-1H-pyrazol-1-yl)acetamido)-3-methylbutyl)boronic acid hydrochloride], the figures for the IC50 in series [4], in series [5] and in series [6] were 1430 nM, 3640 nM and 920 nM, respectively.

As to `CC(C)C[C@H](NC(=O)Cn1nc(-c2cccc(OCCCN3CCOCC3)c2)cc1-c1ccccc1)B(O)O` [Compound 31, (R)-(3-methyl-1-(2-(3-(3-(3-morpholinopropoxy)phenyl)-5-phenyl-1H-pyrazol-1-yl)acetamido)butyl)boronic acid hydrochloride], the IC50 amounted to 690 nM in series [4], 2190 nM in series [5] and 500 nM in series [6].

For “((1R)-1-(2-(3-(3-(2-(S,R-2,6-dimethylmorpholino)ethoxy)phenyl)-5-phenyl-1H-pyrazol-1-yl)acetamido)-3-methylbutyl)boronic acid hydrochloride [Compound 38]”, the IC50 in series [1] (72 h) amounted to 126 nM.

In the case of `CC(C)C[C@H](NC(=O)[C@H](Cc1ccccc1)NC(=O)c1cnccn1)B(O)O` [bortezomib, reference compound], in series [7], the “Relative tumor volume (x ± S)” value was 5.17 ± 0.98, the “T/C (%)” value was 55.41% and the “TGI (%)” value amounted to 44.59%. Further, in series [7] (in mm³ (unit assumed)), the “Tumor volume (x ± S)” value was 359.97 ± 65.13.
